Reference: patent publication US20220175811A1, “STABLE FORMULATIONS OF CYCLIC DINUCLEOTIDE STING AGONIST COMPOUNDS AND METHODS OF USE THEREOF” (Merck Sharp & Dohme Corp., priority 2019, published 2022)

Assay: Forced stress screen (AIBN, peroxide, 0.1N NaOH)
Type: physicochemical
Method: 0.05 mg/mL stock solutions of Compound A were prepared by adding […] of Compound A to a 50 mL volumetric flask and diluted to volume with either 50/50 water/methanol (stock solution A), or 50/50 water/acetonitrile (stock solution B).
An azobisisobutyronitrile (AIBN) stress solution was prepared by dissolving 7.77 mg of AIBN in 10 mL of stock solution A in an amber volumetric flask and sonicating to dissolve. The AIBN control solution was prepared by dissolving 8.48 mg of AIBN in 10 mL of 50/50 methanol/water in an amber volumetric flask. Both solutions were placed in an oven at 40° C. for 24 hours.
A peroxide stress solution was prepared by adding 1.0 mL of 3% hydrogen peroxide to 9.0 mL of stock solution A in a volumetric flask. An aliquot of the solution was placed into an amber vial kept at room temperature, and another aliquot was stored at 5° C. for 24 hours. The peroxide control solution was prepared by adding 1.0 mL of 3% hydrogen peroxide to 9.0 mL 50/50 methanol/water in an amber volumetric flask. This solution was kept at room temperature for 24 hours.
A 0.1N NaOH stress solution was prepared by adding 1.0 mL of 1N sodium hydroxide to 9.0 mL of stock solution B in an amber volumetric flask. One sample was kept at room temperature, and the identical sample was placed in an oven at 60° C. for 24 hours. A 0.1N NaOH control solution was prepared by adding 1.0 mL of 1N sodium hydroxide to 9.0 mL of 50/50 acetonitrile/water in an amber volumetric flask.
No major degradation was observed under AIBN or 0.1N NaOH base stress. […] The percent of Compound A was calculated based on the area count of active peak in the control samples compared to stress samples.

Sensitive for Hydrolysis or Oxidation (0.1 N NaOH base stress, in 0.1 N NaOH after 24h/RT): No sensitivity; <5% drug loss | Sensitive for Hydrolysis or Oxidation (AIBN stress): No sensitivity; <5% drug loss | Sensitive for Hydrolysis or Oxidation (Peroxide stress at 5° C.): High sensitivity; >10% drug loss | Sensitive for Hydrolysis or Oxidation (Peroxide stress at RT): High sensitivity; >10% drug loss | Sensitivity to two-electron oxidative processes (forced stress): highly sensitive
Compound: Nc1nc2c(ncn2[C@@H]2O[C@@H]3CO[P@@](=O)(S)O[C@H]4[C@H](F)[C@H](n5cnc6c(N)ncnc65)O[C@@H]4CO[P@@](=O)(S)O[C@@H]2[C@@H]3F)c(=O)[nH]1 (single isomer, unassigned) [Compound A]
